From US11192893B2, “Pyrazoloquinazolinone antitumor agents” (The Rockefeller University, priority 2017, dated 2021)

Tested on: Hedgehog pathway activity
Assay: Shh-Light luciferase reporter assay of Hedgehog pathway activity (Shh-Light2 cells, SAG-stimulated)
Assay type: cell-based
Conditions: for activity at 2 µM: 2 μM compound, read-out: SHH-light % residual @ 2 μM; for activity at 2 µM / activity at 20 µM: SAG 500 nM; for activity at 20 µM: 20 μM compound, read-out: SHH-light % residual @ 20 μM; for IC50: Table 2, SAG 500 nM, 28-32 hr treatment, read-out: Shh-light IC50
Method: To examine the inhibition of dynein 2 in cell-based assays, an established luciferase reporter-based cellular assay of Hedgehog pathway activity was employed [Taipale et al., Nature. 2000; 406(6799): 1005-9]. Signaling in this pathway depends on the function of dynein 2. In this setting, expression of luciferase driven by Hedgehog pathway activity was inhibited by compound 5 with an IC50 value of 0.9±0.5 μM. […] The potencies of these compounds in this cell-based assay match the rank-order of dynein 2 inhibition in vitro. In these assays, Hedgehog pathway activity was stimulated using the Synthetic Agonist of Smoothened (SAG). This compound competes with many Hedgehog pathway inhibitors for binding to Smoothened, a key node in the signaling pathway.
SHH-Light Assay (Steinman et al. eLife 2017; 6:e25174.)
NIH-3T3 cells stably expressing a luciferase reporter downstream of a Gli binding site (Shh-Light2 cells, RRID: CVCL_2721) were maintained in DMEM with 10% bovine calf serum (BCS). Cells were seeded at a density of 30,000 cells/well in 96-well tissue culture-treated plates (Corning, cat #353072) in 100 μL in DMEM+10% BCS, and incubated for 48 hr (Taipale et al., 2000). Wells were washed briefly with PBS. Next […] of low serum media (DMEM+0.5% BCS) containing smoothened agonist (SAG, 500 nM), and either solvent control (0.2% DMSO) or test compound (serial three-fold dilutions of each inhibitor starting from 20 μM) were added to the wells. After 28-32 hr of inhibitor treatment, cells were washed with 50 μL PBS and lysed for >30 min in 30 μL Passive Lysis Buffer (Promega Dual Luciferase kit, cat E1910). 5 uL of each lysate was transferred to white, solid-bottom 96-well plates (Greiner, cat #655075), followed by rapid addition (within 30 s) of 30 μL of Luciferase Assay Reagent using a multichannel pipette. Luminescence for each condition was read using a Synergy Neo plate reader (5 s integration time per well). Cell line identity was confirmed by measurement of the degree of response to Hedgehog pathway stimulation by the synthetic agonist SAG and using previously published values from our groups and others as references (Firestone et al., 2012; Hyman et al., 2009).

Row | Compound | IC50 [nM] | activity at 2 µM [%] | activity at 20 µM [%]
1 | N#Cc1ccc2[nH]c3c(C#N)c(C4(c5ccc(Cl)cc5)CC4)nn3c(=O)c2c1 [Example 10, 2-[1-(4-Chlorophenyl)cyclopropyl]-9-oxo-4H-pyrazolo[5,1-b]quinazoline-3,7-dicarbonitrile] |  | 70.1 | 10
2 | N#Cc1c(C2CCN(c3ccc(Cl)cc3)CC2)nn2c(=O)c3cc(C(F)(F)F)ccc3[nH]c12 [Example 16, 2-[1-(4-Chlorophenyl)-4-piperidyl]-9-oxo-7-(trifluoromethyl)-4H-pyrazolo[5,1-b]quinazoline-3-carbonitrile] |  | 33.7 | -4.1
3 | N#Cc1c(C2CCN(c3ccc(Cl)cc3)CC2)nn2c(=O)c3cc(Cl)ccc3[nH]c12 [Example 21, 7-Chloro-2-[1-(4-chlorophenyl)-4-piperidyl]-9-oxo-4H-pyrazolo[5,1-b]quinazoline-3-carbonitrile] |  | -2 | -2.6
4 | N#Cc1c(OC2CCN(c3ncc(Cl)cn3)CC2)nn2c(=O)c3cc(Cl)ccc3[nH]c12 [Example 23, 7-Chloro-2-[[1-(5-chloropyrimidin-2-yl)-4-piperidyl]oxy]-9-oxo-4H-pyrazolo[5,1-b]quinazoline-3-carbonitrile] |  | 8.2 | -2.9
5 | N#Cc1c(OC2CCN(C(=O)c3ccc(Cl)cc3)CC2)nn2c(=O)c3cc(Cl)ccc3[nH]c12 [Example 24, 7-Chloro-2-[[1-(4-chlorobenzoyl)-4-piperidyl]oxy]-9-oxo-4H-pyrazolo[5,1-b]quinazoline-3-carbonitrile] |  | 72.4 | 1.6
6 | N#Cc1c(OC2CCN(c3ccc(Cl)cn3)CC2)nn2c(=O)c3cc(Cl)ccc3[nH]c12 [Example 25, 7-Chloro-2-[[1-(5-chloro-2-pyridyl)-4-piperidyl]oxy]-9-oxo-4H-pyrazolo[5,1-b]quinazoline-3-carbonitrile] |  | 41.7 | -3.8
7 | NC(=O)c1c(C2CCC(c3ccc(Cl)cc3)CC2)nn2c(=O)c3ccccc3[nH]c12 (stereo not drawn) [Example 26, 2-[4-(4-Chlorophenyl)cyclohexyl]-9-oxo-4H-pyrazolo[5,1-b]quinazoline-3-carboxamide] |  | 68.8 | -4.5
8 | NC(=O)c1c(CCCOc2ccc(Cl)cc2)nn2c(=O)c3ccccc3[nH]c12 [Example 28, 2-[3-(4-Chlorophenoxy)propyl]-9-oxo-4H-pyrazolo[5,1-b]quinazoline-3-carboxamide] |  | 68.9 | 40.3
9 | NC(=O)c1c(C2(c3ccc(Cl)cc3)CC2)nn2c(=O)c3ccccc3[nH]c12 [Example 30, 2-[1-(4-Chlorophenyl)cyclopropyl]-9-oxo-4H-pyrazolo[5,1-b]quinazoline-3-carboxamide] |  | 101 | 22.1
10 | NC(=O)c1c(-c2ccc(Cl)cc2Cl)nn2c(=O)c3ccccc3[nH]c12 [Example 32, 2-(2,4-Dichlorophenyl)-9-oxo-4H-pyrazolo[5,1-b]quinazoline-3-carboxamide] |  |  | 57.5
11 | COc1cccc2[nH]c3c(C#N)c(-c4ccc(Cl)cc4Cl)nn3c(=O)c12 [Example 37, 2-(2,4-Dichlorophenyl)-8-methoxy-9-oxo-4H-pyrazolo[5,1-b]quinazoline-3-carbonitrile] |  | 100 | 18

More lines, main results first:

Row | IC50 [nM] | Compound | activity at 2 µM [%] | activity at 20 µM [%]
12 | 730 | N#Cc1c(C2(c3ccc(Cl)cc3)CC2)nn2c(=O)c3cc(C(F)(F)F)ccc3[nH]c12 [Example 11, 2-[1-(4-Chlorophenyl)cyclopropyl]-9-oxo-7-(trifluoromethyl)-4H-pyrazolo[5,1-b]quinazoline-3-carbonitrile] | 17.7 | -4.1
13 | 340 | N#Cc1c(C2CCC(c3ccc(Cl)cc3)CC2)nn2c(=O)c3cc(C4CC4)ccc3[nH]c12 (stereo not drawn) [Example 13, 2-[4-(4-Chlorophenyl)cyclohexyl]-7-cyclopropyl-9-oxo-4H-pyrazolo[5,1-b]quinazoline-3-carbonitrile] | -3.1 | -3.6
14 | 470 | N#Cc1c(C2(c3ccc(Cl)cc3)CC2)nn2c(=O)c3cc(C4CC4)ccc3[nH]c12 [Example 14, 2-[1-(4-Chlorophenyl)cyclopropyl]-7-cyclopropyl-9-oxo-4H-pyrazolo[5,1-b]quinazoline-3-carbonitrile] | -2.3 | -1.8
15 | 320 | N#Cc1c(C2CCC(c3ccc(Cl)cc3)CC2)nn2c(=O)c3cc(C(F)(F)F)ccc3[nH]c12 (stereo not drawn) [Example 15, 2-[4-(4-Chlorophenyl)cyclohexyl]-9-oxo-7-(trifluoromethyl)-4H-pyrazolo[5,1-b]quinazoline-3-carbonitrile] | -3.1 | -4
16 | 600 | N#Cc1c(C2CCC(c3ccc(Cl)cc3)CC2)nn2c(=O)c3cc(Cl)ccc3[nH]c12 (stereo not drawn) [Example 17, 7-Chloro-2-[4-(4-chlorophenyl)cyclohexyl]-9-oxo-4H-pyrazolo[5,1-b]quinazoline-3-carbonitrile] | -2.3 | -3.9
17 | 760 | N#Cc1c(C2(c3ccc(Cl)cc3)CC2)nn2c(=O)c3cc(Cl)ccc3[nH]c12 [Example 18, 7-Chloro-2-[1-(4-chlorophenyl)cyclopropyl]-9-oxo-4H-pyrazolo[5,1-b]quinazoline-3-carbonitrile] | -0.5 | 2.8
18 | 1600 | N#Cc1c(C2(c3ccc(Cl)cc3)CC2)nn2c(=O)c3cc(F)ccc3[nH]c12 [Example 19, 2-[1-(4-Chlorophenyl)cyclopropyl]-7-fluoro-9-oxo-4H-pyrazolo[5,1-b]quinazoline-3-carbonitrile] | 1.4 | -0.4
19 | 330 | N#Cc1c(N2CCC(c3ccc(Cl)cc3)CC2)nn2c(=O)c3cc(Cl)ccc3[nH]c12 [Example 20, 7-Chloro-2-[4-(4-chlorophenyl)-1-piperidyl]-9-oxo-4H-pyrazolo[5,1-b]quinazoline-3-carbonitrile] | -2.5 | -3.1
20 | 670 | N#Cc1c(C2CCC(c3ccc(Cl)cc3)CC2)nn2c(=O)c3cc(Br)ccc3[nH]c12 (stereo not drawn) [Example 22, 7-Bromo-2-[4-(4-chlorophenyl)cyclohexyl]-9-oxo-4H-pyrazolo[5,1-b]quinazoline-3-carbonitrile] | -2.9 | -2.8
21 | 2000 | N#Cc1c(-c2ccc(Cl)cc2Cl)nn2c(=O)c3ccccc3[nH]c12 [Example 33, 2-(2,4-Dichlorophenyl)-9-oxo-4H-pyrazolo[5,1-b]quinazoline-3-carbonitrile] |  | -3.6
22 | 3600 | NC(=O)c1c(-c2ccc(Cl)cc2Cl)nn2c(=O)c3ccc(Cl)cc3[nH]c12 [Example 34, 6-Chloro-2-(2,4-dichlorophenyl)-9-oxo-4H-pyrazolo[5,1-b]quinazoline-3-carboxamide] |  | -3.4
23 | 2100 | N#Cc1c(-c2ccc(Cl)cc2Cl)nn2c(=O)c3ccc(Cl)cc3[nH]c12 [Example 35, 6-Chloro-2-(2,4-dichlorophenyl)-9-oxo-4H-pyrazolo[5,1-b]quinazoline-3-carbonitrile] |  | 
24 | 10000 | COc1cccc2c(=O)n3nc(-c4ccc(Cl)cc4Cl)c(C#N)c3[nH]c12 [Example 36, 2-(2,4-Dichlorophenyl)-5-methoxy-9-oxo-4H-pyrazolo[5,1-b]quinazoline-3-carbonitrile] |  | 
